Experimental data taken from article PMC6981637, “Tetrahydroquinoline-Isoxazole/Isoxazoline Hybrid Compounds as Potential Cholinesterases Inhibitors: Synthesis, Enzyme Inhibition Assays, and Molecular Modeling Studies” (International Journal of Molecular Sciences, 2019).
Values joined by “and” are separate entries in the source; they are usually repeats but may differ in a detail not shown here. Identical values can stand only once. Like-named read-outs stand apart in the source and are kept apart here.

What was measured:
[1] = biological target: AChE (from Electrophorus electricus) (Electrophorus electricus, UniProt O42275)
Sequence of AChE (from Electrophorus electricus) (O42275 24-633): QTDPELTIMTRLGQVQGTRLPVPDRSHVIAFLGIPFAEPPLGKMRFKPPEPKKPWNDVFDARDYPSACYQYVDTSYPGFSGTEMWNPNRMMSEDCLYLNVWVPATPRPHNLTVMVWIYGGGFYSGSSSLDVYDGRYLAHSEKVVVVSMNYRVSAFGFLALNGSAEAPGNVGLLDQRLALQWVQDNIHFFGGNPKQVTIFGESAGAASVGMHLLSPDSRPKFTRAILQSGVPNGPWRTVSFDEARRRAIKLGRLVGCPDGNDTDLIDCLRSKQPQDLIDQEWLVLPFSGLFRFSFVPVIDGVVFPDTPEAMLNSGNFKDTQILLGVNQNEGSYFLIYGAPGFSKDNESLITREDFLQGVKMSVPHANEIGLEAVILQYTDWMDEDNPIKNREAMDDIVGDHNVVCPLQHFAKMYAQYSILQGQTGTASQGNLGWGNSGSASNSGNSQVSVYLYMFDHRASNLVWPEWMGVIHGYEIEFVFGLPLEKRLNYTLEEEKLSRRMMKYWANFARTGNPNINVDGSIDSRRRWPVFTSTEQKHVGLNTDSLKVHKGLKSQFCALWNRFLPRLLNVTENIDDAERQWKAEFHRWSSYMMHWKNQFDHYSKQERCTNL

[2] = biological target: T1, BChE (from bovine serum) (Bos taurus, UniProt P32749); experiment: BChE inhibitory activity (Ellman method); type: biochemical; conditions: for IC50: average from three independent experiments ± SEM; for selectivity against BChE: conclusions
T1 construct: purchased Sigma-Aldrich
T1 sequence (P32749 29-602): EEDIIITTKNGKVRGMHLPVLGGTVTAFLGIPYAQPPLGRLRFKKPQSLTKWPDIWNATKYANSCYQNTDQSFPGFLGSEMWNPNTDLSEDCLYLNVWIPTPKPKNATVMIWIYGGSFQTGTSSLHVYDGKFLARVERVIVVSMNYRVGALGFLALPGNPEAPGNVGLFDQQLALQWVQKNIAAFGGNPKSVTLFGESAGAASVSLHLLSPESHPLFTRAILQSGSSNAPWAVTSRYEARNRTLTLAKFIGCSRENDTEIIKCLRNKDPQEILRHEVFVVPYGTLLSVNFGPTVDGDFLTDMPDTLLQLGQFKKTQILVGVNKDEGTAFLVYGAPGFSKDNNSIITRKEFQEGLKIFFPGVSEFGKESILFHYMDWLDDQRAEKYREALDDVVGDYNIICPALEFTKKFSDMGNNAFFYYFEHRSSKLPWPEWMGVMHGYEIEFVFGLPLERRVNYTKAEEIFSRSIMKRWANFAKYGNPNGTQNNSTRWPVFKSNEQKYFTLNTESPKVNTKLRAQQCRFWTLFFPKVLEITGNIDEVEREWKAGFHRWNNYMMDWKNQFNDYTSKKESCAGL

[3] = Table 1, THQ–isoxazoline hybrids 5, read-out: IC50 BChE
[4] = Table 2, THQ–isoxazole hybrids 6, read-out: BChE (IC50)

Structure (SMILES)	SI [1]	IC50 ([1]; read-out: IC50 AChE) [µM]	IC50 [2, 3] [µM]	selectivity for inhibiting AChE [1]	IC50 ([1]; read-out: AChE (IC50)) [µM]	IC50 [2, 4]	selectivity against BChE [2]	times more potent against BChE than for the AChE enzyme ([2]; selectivity for BChE)
O=C1CCCN1C1CCN(CC2CC(c3ccccc3)=NO2)c2ccccc21 (centres unmarked) [5a, 3-phenyl-5-[(4-(2′-oxopyrrolidin-1′-yl)-3,4-dihydroquinolin-1(2H)-yl)-methyl]-4,5 dihydroisoxazole]	1.06	77.37 ± 0.01	81.9 ± 0.04					
COc1ccc(C2=NOC(CN3CCC(N4CCCC4=O)c4ccccc43)C2)cc1 (centres unmarked) [5b, 3-(4-methoxyphenyl)-5-[4-((2′-oxopyrrolidin-1′-yl)-3,4-dihydroquinolin-1(2H)-yl)-methyl]-4,5-dihydroisoxazole]	0.69	95.14 ± 0.08	65.59 ± 0.006					
COc1ccc(C2=NOC(CN3CCC(N4CCCC4=O)c4ccccc43)C2)cc1OC (centres unmarked) [5c, 3-(3,4-dimethoxyphenyl)-5-[4-((2′-oxopyrrolidin-1′-yl)-3,4-dihydroquinolin-1(2H)-yl)-methyl]-4,5-dihydroisoxazole]		100.65 ± 0.05						
COc1cc(C2=NOC(CN3CCC(N4CCCC4=O)c4ccccc43)C2)cc(OC)c1OC (centres unmarked) [5d, 3-(3,4,5-trimethoxyphenyl)-5-[4-((2′-oxopyrrolidin-1′-yl)-3,4-dihydroquinolin-1(2H)-yl)-methyl]-4,5-dihydroisoxazole]	0.27	49.82 ± 0.03	13.66 ± 0.01					
Cc1ccc2c(c1)C(N1CCCC1=O)CCN2CC1CC(c2ccccc2)=NO1 (centres unmarked) [5e, 5-[(6-methyl-4-(2′-oxopyrrolidin-1′-yl)-3,4-dihydroquinolin-1(2H)-yl)-methyl]-3-phenyl-4,5-dihydroisoxazole]	0.17	189.1 ± 0.01	31.4 ± 0.01					
COc1ccc(C2=NOC(CN3CCC(N4CCCC4=O)c4cc(C)ccc43)C2)cc1 (centres unmarked) [5f, 3-(4-methoxyphenyl)-5-[(6-methyl-4-(2′-oxopyrrolidin-1′-yl)-3,4-dihydroquinolin-1(2H)-yl)-methyl]-4,5-dihydroisoxazole]	1.43	16.31 ± 0.01	23.36 ± 0.005					
COc1ccc(C2=NOC(CN3CCC(N4CCCC4=O)c4cc(C)ccc43)C2)cc1OC (centres unmarked) [5g, 3-(3,4-dimethoxyphenyl)-5-[(6-methyl-4-(2′-oxopyrrolidin-1′-yl)-3,4-dihydroquinolin-1(2H)-yl)-methyl]-4,5-dihydroisoxazole]	0.32	99.71 ± 0.01	31.49 ± 0.005					
COc1cc(C2=NOC(CN3CCC(N4CCCC4=O)c4cc(C)ccc43)C2)cc(OC)c1OC (centres unmarked) [5h, 5-[(6-methyl-4-(2′-oxopyrrolidin-1′-yl)-3,4-dihydroquinolin-1(2H)-yl)-methyl]-3-(3,4,5-trimethoxyphenyl)-4,5-dihydroisoxazole]	1.70	37.41 ± 0.03	63.72 ± 0.001					
COc1ccc2c(c1)C(N1CCCC1=O)CCN2CC1CC(c2ccccc2)=NO1 (centres unmarked) [5i, 5-[(6-methoxy-4-(2′-oxopyrrolidin-1′-yl)-3,4-dihydroquinolin-1(2H)-yl)-methyl]-3-phenyl-4,5-dihydroisoxazole]	1.79	82.04 ± 0.11	146.37 ± 0.03					
COc1ccc(C2=NOC(CN3CCC(N4CCCC4=O)c4cc(OC)ccc43)C2)cc1 (centres unmarked) [5j, 3-(4-methoxyphenyl)-5-[(6-methoxy-4-(2′-oxopyrrolidin-1′-yl)-3,4-dihydroquinolin-1(2H)-yl)-methyl]-4,5-dihydroisoxazole]	1.55	93.66 ± 0.006	144.71 ± 0.004					
COc1ccc2c(c1)C(N1CCCC1=O)CCN2CC1CC(c2ccc(OC)c(OC)c2)=NO1 (centres unmarked) [5k, 3-(3,4-dimethoxyphenyl)-5-[(6-methoxy-4-(2′-oxopyrrolidin-1′-yl)-3,4-dihydroquinolin-1(2H)-yl)-methyl]-4,5-dihydroisoxazole]	16.8	15.26 ± 0.02	255.82 ± 0.01	significant selectivity				
COc1ccc2c(c1)C(N1CCCC1=O)CCN2CC1CC(c2cc(OC)c(OC)c(OC)c2)=NO1 (centres unmarked) [5l, 5-[(6-methoxy-4-(2′-oxopyrrolidin-1′-yl)-3,4-dihydroquinolin-1(2H)-yl)-methyl]-3-(3,4,5-trimethoxyphenyl)-4,5-dihydroisoxazole]	0.40	109.26 ± 0.01	43.67 ± 0.02					
O=C1CCCN1C1CCN(CC2CC(c3ccccc3)=NO2)c2ccc(Cl)cc21 (centres unmarked) [5m, 5-[(6-chloro-4-(2′-oxopyrrolidin-1′-yl)-3,4-dihydroquinolin-1(2H)-yl)-methyl]-3-phenyl-4,5-dihydroisoxazole]	0.63	30.1 ± 0.01	19.09 ± 0.01	significant selectivity				
COc1ccc(C2=NOC(CN3CCC(N4CCCC4=O)c4cc(Cl)ccc43)C2)cc1 (centres unmarked) [5n, 5-[(6-chloro-4-(2′-oxopyrrolidin-1′-yl)-3,4-dihydroquinolin-1(2H)-yl)-methyl]-3-(4-methoxyphenyl)-4,5-dihydroisoxazole]	5.19		22 ± 0.02	significant selectivity				
COc1ccc(C2=NOC(CN3CCC(N4CCCC4=O)c4cc(Cl)ccc43)C2)cc1OC (centres unmarked) [5o, 3-(4,5-dimethoxyphenyl)-5-[(6-chloro-4-(2′-oxopyrrolidin-1′-yl)-3,4-dihydroquinolin-1(2H)-yl)-methyl]-4,5-dihydroisoxazole]	6.35	13.17 ± 0.02	83.65 ± 0.01	significant selectivity				
COc1cc(C2=NOC(CN3CCC(N4CCCC4=O)c4cc(Cl)ccc43)C2)cc(OC)c1OC (centres unmarked) [5p, 5-[(6-chloro-4-(2′-oxopyrrolidin-1′-yl)-3,4-dihydroquinolin-1(2H)-yl)-methyl]-3-(3,4,5-trimethoxyphenyl)-4,5-dihydroisoxazole]	8.61	12.28 ± 0.01	106 ± 2					
O=C1CCCN1C1CCN(Cc2cc(-c3ccccc3)no2)c2ccccc21 (centres unmarked) [6a, 3-phenyl-5-((4′-(2′’-oxopyrrolidin-1′’-yl)-3′,4′-dihydroquinolin-1′(2′H)-yl)methyl)isoxazole]	0.04				104.74 ± 0.01	< 7.18 µM and 4.36 µM	more selective	
COc1ccc(-c2cc(CN3CCC(N4CCCC4=O)c4cc(Br)ccc43)on2)cc1OC (centres unmarked) [6aa, 3-(3,4-dimethoxyphenyl)-5-((6′-bromo-4′-(2′’-oxopyrrolidin-1′’-yl)-3′,4′-dihydroquinolin-1′(2′H)-yl)methyl)isoxazole]	0.04				96.1 ± 0.01	< 7.18 µM and 3.97 µM	more selective	about 24 times
COc1cc(-c2cc(CN3CCC(N4CCCC4=O)c4cc(Br)ccc43)on2)cc(OC)c1OC (centres unmarked) [6ab, 5-((6′-bromo-4′-(2′’-oxopyrrolidin-1′’-yl)-3′,4′-dihydroquinolin-1′(2′H)-yl)methyl)-3-(3,4,5-trimethoxyphenyl)isoxazole]	0.36				148.31 ± 0.004	54.09 ± 0.01 µM		
COc1ccc(-c2cc(CN3CCC(N4CCCC4=O)c4ccccc43)on2)cc1 (centres unmarked) [6b, 3-(4-methoxyphenyl)-5-((4′-(2′’-oxopyrrolidin-1′’-yl)-3′,4′-dihydroquinolin-1′(2′H)-yl)methyl)isoxazole]	0.64				42.44 ± 0.01	27.25 ± 0.003 µM		
COc1cc(-c2cc(CN3CCC(N4CCCC4=O)c4ccccc43)on2)cc(OC)c1OC (centres unmarked) [6c, 3-(3,4,5-trimethoxyphenyl)-5-((4′-(2′’-oxopyrrolidin-1′’-yl)-3′,4′-dihydroquinolin-1′(2′H)-yl)methyl)isoxazole]	2.17				22.07 ± 0.01	47.96 ± 0.01 µM		
Cc1ccc2c(c1)C(N1CCCC1=O)CCN2Cc1cc(-c2ccccc2)no1 (centres unmarked) [6d, 5-((6′-methyl-4′-(2′’-oxopyrrolidin-1′’-yl)-3′,4′-dihydroquinolin-1′(2′H)-yl)methyl)-3-phenylisoxazole]	0.49				37.84 ± 0.01	18.51 ± 0.01 µM		
COc1ccc(-c2cc(CN3CCC(N4CCCC4=O)c4cc(C)ccc43)on2)cc1 (centres unmarked) [6e, 3-(4-methoxyphenyl)-5-((6′-methyl-4′-(2′’-oxopyrrolidin-1′’-yl)-3′,4′-dihydroquinolin-1′(2′H)-yl)methyl)isoxazole]	2.62				30.43 ± 0.02	79.81 ± 0.06 µM		
COc1ccc(-c2cc(CN3CCC(N4CCCC4=O)c4cc(C)cc(Cl)c43)on2)cc1OC (centres unmarked) [6f, 5-((8′-chloro-6′-methyl-4′-(2′’-oxopyrrolidin-1′’-yl)-3′,4′-dihydroquinolin-1′(2′H)-yl)methyl)-3-(3,4-dimethoxyphenyl)isoxazole]	6.76				54.71 ± 0.02	370.12 ± 0.03 µM		
COc1cc(-c2cc(CN3CCC(N4CCCC4=O)c4cc(C)ccc43)on2)cc(OC)c1OC (centres unmarked) [6g, 3-(3,4,5-trimethoxyphenyl)-5-((6′-methyl-4′-(2′’-oxopyrrolidin-1′’-yl)-3′,4′-dihydroquinolin-1′(2′H)-yl)methyl)isoxazole]	1.07				72.94 ± 0.02	78.16 ± 0.01 µM		
COc1ccc2c(c1)C(N1CCCC1=O)CCN2Cc1cc(-c2ccccc2)no1 (centres unmarked) [6h, 5-((6′-methoxy-4′-(2′’-oxopyrrolidin-1′’-yl)-3′,4′-dihydroquinolin-1′(2′H)-yl)methyl)-3-phenylisoxazole]	0.08				52.76 ± 0.01	< 7.18 µM and 4.33 µM	more selective	
COc1ccc(-c2cc(CN3CCC(N4CCCC4=O)c4cc(OC)ccc43)on2)cc1 (centres unmarked) [6i, 3-(4-methoxyphenyl)-5-((6′-methoxy-4′-(2′’-oxopyrrolidin-1′’-yl)-3′,4′-dihydroquinolin-1′(2′H)-yl)methyl)isoxazole]	2.52				84.51 ± 0.01	213.22 ± 0.01 µM		
CCc1ccc2c(c1)C(N1CCCC1=O)CCN2Cc1cc(-c2cc(OC)c(OC)c(OC)c2)no1 (centres unmarked) [6t, 5-((6′-ethyl-4′-(2′’-oxopyrrolidin-1′’-yl)-3′,4′-dihydroquinolin-1′(2′H)-yl)methyl)-3-(3,4,5-trimethoxyphenyl)isoxazole]					66.77 ± 0.01			
COc1ccc2c3c1O[C@H]1C[C@@H](O)C=C[C@@]31CCN(C)C2 [Galantamine, galantamine, reference compound]			8.8 ± 0.5			8.8 ± 0.5 µM		
